One block for each molecule: values may come before it.
What was measured:
[1] = Half life in Sprague-Dawley rat at 10 mg/kg, po via gavage for 2 hrs by UHPLC analysis; type: ADME, organism-based; settings: in vivo
[2] = Cmax in Sprague-Dawley rat at 10 mg/kg, po via gavage for 2 hrs by UHPLC analysis; type: ADME, organism-based; set-up: dose 10 mg/kg, time 2 hrs, route po; settings: in vivo
[3] = Observed AUC (0 to infinity) in Sprague-Dawley rat at 10 mg/kg, po via gavage for 2 hrs by UHPLC analysis; type: ADME, organism-based; set-up: dose 10 mg/kg, time 2 hrs, route po; settings: in vivo
MCF7 [4] = assay: Antiproliferative activity against 17beta-estradiol stimulated human MCF7 cells assessed as inhibition of cell growth incubated for 5 to 7 days by fluorescence based assay; type: functional
Ishikawa = assay: Antiproliferative activity against human Ishikawa cells assessed as inhibition of cell growth incubated for 48 hrs by MTT assay; type: functional, cell-based
MCF7 [5] = assay: Antiproliferative activity against human MCF7 cells assessed as inhibition of cell growth incubated for 48 hrs by MTT assay; type: functional, cell-based; settings: MCF7, 48 h
MCF7 [6] = assay: Antiproliferative activity against human MCF7 cells assessed as inhibition of cell growth incubated for 48 hrs by CCK-8 assay; type: functional, cell-based; settings: MCF7, 48 h
[7] = Downregulation of ER expression in human MCF7 cells incubated for 48 hrs by ELISA; type: functional, cell-based; settings: MCF7, 48 h
[8] = In vivo antagonist activity against E2-mediated uterine stimulation in Sprague-Dawley rat administered orally or subcutaneously once daily for 3 days; type: functional, organism-based
Estrogen receptor beta = Estrogen receptor beta (Homo sapiens, UniProt Q92731); assay: Inhibition of ERbeta (unknown origin) incubated for 4 hrs by fluorescence polarization assay
Chain of Estrogen receptor beta (Q92731 whole entry): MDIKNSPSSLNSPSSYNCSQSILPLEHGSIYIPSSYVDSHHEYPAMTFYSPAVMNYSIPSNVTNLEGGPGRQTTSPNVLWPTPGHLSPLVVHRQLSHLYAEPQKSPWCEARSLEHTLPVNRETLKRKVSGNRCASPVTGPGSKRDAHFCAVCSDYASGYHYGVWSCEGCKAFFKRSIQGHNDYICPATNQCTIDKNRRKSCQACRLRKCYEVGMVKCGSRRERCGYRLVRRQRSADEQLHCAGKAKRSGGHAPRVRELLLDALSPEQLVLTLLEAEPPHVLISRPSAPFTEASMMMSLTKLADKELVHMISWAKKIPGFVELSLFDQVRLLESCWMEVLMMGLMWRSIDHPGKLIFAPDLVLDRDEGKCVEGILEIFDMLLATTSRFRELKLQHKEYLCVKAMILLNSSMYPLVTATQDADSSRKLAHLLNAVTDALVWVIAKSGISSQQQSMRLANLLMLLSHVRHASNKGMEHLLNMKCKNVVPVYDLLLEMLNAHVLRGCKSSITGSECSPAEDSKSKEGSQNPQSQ

SMILES: O=C(/C=C\c1ccc(-c2nc(-c3ccc(O)cc3)nc(-c3ccc(O)cc3)n2)cc1)NCCCO
IC50 (Ishikawa): 3110 nM | IC50 (MCF7 [5]): 3150 nM

SMILES: COc1ccc(C(=O)C2=C(Oc3ccc(/C=C/C(=O)O)cc3)c3ccc(O)cc3OC2)cc1
IC50 (MCF7 [6]): 800 nM

SMILES: CCNCCc1ccc(CN(CC)c2cc(OC)ccc2[C@@H]2CCc3cc(O)ccc3C2)cc1 [ELACESTRANT]
EC50 [7]: 0.6 nM | EC50 [8]: 0.3 mg/kg | IC50 (Estrogen receptor beta): 870 nM

The remaining lines, values ahead:

half-life [1]: 17 h | Cmax [2]: 158 ng/mL | AUC(0-inf) [3]: 1450 ng·h/mL
SMILES: C[C@]12CC[C@@H]3c4ccc(B(O)O)cc4C[C@@H](CCCCCCCCC[S+]([O-])CCCC(F)(F)C(F)(F)F)[C@H]3[C@@H]1CC[C@@H]2O (stereo not given in full) [ZB-716]

IC50 (MCF7 [4]): 7.2 nM
SMILES: CC1=C(c2ccc(O)cc2)[C@H](c2ccc(OCCN3CC[C@@H](C)C3)cc2)Oc2cc(O)ccc21

Source: ChEMBL document CHEMBL5370532, “Selective Estrogen receptor degraders (SERDs) for the treatment of breast cancer: An overview” (Eur J Med Chem, 2023)
